Source: patent US8772323B2, “Benzoxazole- and tetrahydrobenzoxazole-substituted pyridazinones as GPR119 agonists” (Boehringer Ingelheim International GmbH, priority 2010, dated 2014)
Counter-ions that a name gives are not always drawn.

Target: human GPR119 (Homo sapiens (Human), UniProt Q8TDV5)
Assay: AlphaScreen cAMP assay in Min-6/hGPR119 cells (GPR119 activation, intracellular cAMP)
Assay type: cell-based
Settings: MIN6 cells stably transfected with human GPR119; 45 minutes' incubation at RT; AlphaScreen cAMP Assay Kit
Procedure, shortened: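 MIN6 cells stably expressing human GPR119 plated 10000 cells/well and held 24 h at 37° C. Compounds applied in stimulating buffer, pH 7.4, with 0.5 mM IBMX, 0.1% BSA, 1% DMSO final, for 45 min at RT. Intracellular cAMP read by AlphaScreen.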

Chain of human GPR119 (Q8TDV5 whole entry): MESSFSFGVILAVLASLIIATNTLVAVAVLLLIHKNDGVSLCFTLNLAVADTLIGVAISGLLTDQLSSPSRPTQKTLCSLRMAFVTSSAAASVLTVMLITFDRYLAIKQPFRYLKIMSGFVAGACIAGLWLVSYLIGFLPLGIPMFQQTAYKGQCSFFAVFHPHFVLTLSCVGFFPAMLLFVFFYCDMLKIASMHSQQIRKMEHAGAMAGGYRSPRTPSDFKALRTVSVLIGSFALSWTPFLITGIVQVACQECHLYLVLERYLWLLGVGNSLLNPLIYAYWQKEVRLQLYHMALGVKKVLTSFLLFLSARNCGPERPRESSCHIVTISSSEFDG

`CCC1CC(=O)NN=C1c1ccc2nc(-c3ccc(OCCN4CCCCCC4)cc3)oc2c1` (stereo not drawn) [Example 53, 6-{2-[4-(2-azepan-1-yl-ethoxy)-phenyl]-benzoxazol-6-yl}-5-ethyl-4,5-dihydro-2H-pyridazin-3-one] gave an EC50 of 205 nM.
With `Cc1cccc(-c2nc3ccc(C4=NNC(=O)C5CC45)cc3o2)c1` (stereo not drawn) [Example 12, 5-(2-m-tolyl-benzoxazol-6-yl)-3,4-diaza-bicyclo[4.1.0]hept-4-en-2-one] the EC50 was 246 nM.
For `CCC1CC(=O)NN=C1c1ccc2nc(-c3ccc(OC)cc3)oc2c1` (stereo not drawn) [Example 104, 5-ethyl-6-[2-(4-methoxy-phenyl)-benzoxazol-6-yl]-4,5-dihydro-2H-pyridazin-3-one], the EC50 was 120 nM.
Compound `CC1CC(=O)NN=C1c1ccc2nc(-c3ccc(OCc4ccccc4)cc3)oc2c1` (stereo not drawn) [Example 36, 6-[2-(4-benzyloxy-phenyl)-benzoxazol-6-yl]-5-methyl-4,5-dihydro-2H-pyridazin-3-one] has an EC50 of 58 nM.
For `CCC1CC(=O)NN=C1c1ccc2nc(-c3ccc(OCCN4CCN(C)CC4)cc3)oc2c1` (stereo not drawn) [Example 44, 5-ethyl-6-(2-{4-[2-(4-methyl-piperazin-1-yl)-ethoxy]-phenyl}-benzoxazol-6-yl)-4,5-dihydro-2H-pyridazin-3-one dihydrochloride], the EC50 was 1090 nM.
`CCC[C@@H]1C(=O)NN=C(c2ccc3nc(-c4ccc(OCc5ccccc5)cc4)oc3c2)[C@H]1C` (relative stereo) [Example 200, trans-6-[2-(4-benzoxy-phenyl)-benzoxazol-6-yl]-5-methyl-4-propyl-4,5-dihydro-2H-pyridazin-3-one] gave an EC50 of 52 nM.
Work on `CC[C@H]1C(c2ccc3nc(-c4ccccc4)oc3c2)=NNC(=O)[C@@H]1C` [Example 147, (4R,5R)-5-ethyl-4-methyl-6-(2-phenyl-1,3-benzoxazol-6-yl)-2,3,4,5-tetrahydropyridazin-3-one] yielded an EC50 of 79 nM.
`CCC1CC(=O)NN=C1c1ccc2nc(-c3ccc(OCCN4CC(C)OC(C)C4)cc3)oc2c1` (stereo not drawn) [Example 220, 6-(2-{4-[2-(2,6-dimethyl-morpholin-4-yl)-ethoxy]-phenyl}-benzoxazol-6-yl)-5-ethyl-4,5-dihydro-2H-pyridazin-3-one] was tested, and the EC50 was 84 nM.
With `CCC1CC(=O)NN=C1c1ccc2nc(-c3ccc(OC(C)(C)CN4CCCC4)cc3)oc2c1` (stereo not drawn) [Example 228, 6-{2-[4-(1,1-dimethyl-2-pyrrolidin-1-yl-ethoxy)-phenyl]-benzoxazol-6-yl}-5-ethyl-4,5-dihydro-2H-pyridazin-3-one] the EC50 was 549 nM.
Compound `CCC1CC(=O)NN=C1c1ccc2nc(-c3ccc(OCCN(CC)CC)cc3)oc2c1` (stereo not drawn) [Example 222, 6-{2-[4-(2-diethylamino-ethoxy)-phenyl]-benzoxazol-6-yl}-5-ethyl-4,5-dihydro-2H-pyridazin-3-one] has an EC50 of 299 nM.
Work on `CC[C@@H]1CC(=O)NN=C1c1ccc2nc(-c3ccc(N(C)C)cc3)oc2c1` [Example 191, (5R)-6-{2-[4-(dimethylamino)phenyl]-1,3-benzoxazol-6-yl}-5-ethyl-2,3,4,5-tetrahydropyridazin-3-one] yielded an EC50 of 41 nM.
`CCC[C@H]1C(=O)NN=C(c2ccc3nc(-c4ccc(OCCN(C(C)C)C(C)C)cc4)oc3c2)[C@H]1C` (relative stereo) [Example 169, cis-6-{2-[4-(2-diisopropylamino-ethoxy)-phenyl]-benzoxazol-6-yl}-5-methyl-4-propyl-4,5-dihydro-2H-pyridazin-3-one] showed an EC50 of 1040 nM.
With `CCC[C@@H]1C(=O)NN=C(c2ccc3nc(-c4ccc(OC(C)C)cc4)oc3c2)[C@H]1C` (relative stereo) [Example 171, trans-6-[2-(4-isopropoxy-phenyl)-benzoxazol-6-yl]-5-methyl-4-propyl-4,5-dihydro-2H-pyridazin-3-one] the EC50 was 37 nM.
`CC(C)C1CC(=O)NN=C1c1ccc2nc(-c3ccccc3)oc2c1` (stereo not drawn) [Example 32, 5-isopropyl-6-(2-phenyl-benzoxazol-6-yl)-4,5-dihydro-2H-pyridazin-3-one] was tested, and the EC50 was 869 nM.
Compound `CC[C@@H]1C(c2ccc3nc(-c4ccc(OC(C)C)cc4)oc3c2)=NNC(=O)[C@@H]1C` (relative stereo) [Example 179, cis-5-ethyl-6-[2-(4-isopropoxy-phenyl)-benzoxazol-6-yl]-4-methyl-4,5-dihydro-2H-pyridazin-3-one] has an EC50 of 3840 nM.
`CCC1CC(=O)NN=C1c1ccc2nc(-c3ccc(N4CCOCC4)cc3)oc2c1` (stereo not drawn) [Example 177, 5-ethyl-6-[2-(4-morpholin-4-yl-phenyl)-benzoxazol-6-yl]-4,5-dihydro-2H-pyridazin-3-one] gave an EC50 of 134 nM.
`CCC1CC(=O)NN=C1c1ccc2nc(-c3cccc(OCCN(C)C(C)C)c3)oc2c1` (stereo not drawn) [Example 217] gave an EC50 of 2410 nM.
Compound `CCC1CC(=O)NN=C1c1ccc2nc(-c3ccc(OCCN4CCCCC4)cc3)oc2c1` (stereo not drawn) [Example 49, 5-ethyl-6-{2-[4-(2-piperidin-1-yl-ethoxy)-phenyl]-benzoxazol-6-yl}-4,5-dihydro-2H-pyridazin-3-one] has an EC50 of 114 nM.
Compound `CCC1CC(=O)NN=C1c1ccc2nc(-c3ccc(OCCN4CCC5(CCCCC5)CC4)cc3)oc2c1` (stereo not drawn) [Example 245, 6-(2-{4-[2-(3-aza-spiro[5.5]undec-3-yl)-ethoxy]-phenyl}-benzoxazol-6-yl)-5-ethyl-4,5-dihydro-2H-pyridazin-3-one] has an EC50 of 434 nM.
With `CCC[C@H]1C(=O)NN=C(c2ccc3nc(-c4ccc(F)cc4)oc3c2)[C@@H]1C` (relative stereo) [Example 182, trans-6-[2-(4-fluoro-phenyl)-benzoxazol-6-yl]-5-methyl-4-propyl-4,5-dihydro-2H-pyridazin-3-one] the EC50 was 116 nM.
In the case of `CCCCC1CC(c2ccc3nc(-c4cccs4)oc3c2)=NNC1=O` (stereo not drawn) [Example 140, 4-butyl-6-(2-thiophen-2-yl-benzoxazol-6-yl)-4,5-dihydro-2H-pyridazin-3-one], the EC50 is reported as over 10000 nM.
`CCCN(CCOc1ccc(-c2nc3ccc(C4=NNC(=O)CC4CC)cc3o2)cc1)C(C)C` (stereo not drawn) [Example 249, 5-ethyl-6-(2-{4-[2-(isopropyl-propyl-amino)-ethoxy]-phenyl}-benzoxazol-6-yl)-4,5-dihydro-2H-pyridazin-3-one] gave an EC50 of 58 nM.
With `CCC1CC(=O)NN=C1c1ccc2nc(-c3ccc(OCCN4CCOCC4)cc3)oc2c1` (stereo not drawn) [Example 64, 5-ethyl-6-{2-[4-(2-morpholin-4-yl-ethoxy)-phenyl]-benzoxazol-6-yl}-4,5-dihydro-2H-pyridazin-3-one] the EC50 was 237 nM.
Work on `C=CC[C@H]1C(=O)NN=C(c2ccc3nc(-c4ccccc4)oc3c2)[C@H]1C` (relative stereo) [Example 198, cis-4-allyl-5-methyl-6-(2-phenyl-benzoxazol-6-yl)-4,5-dihydro-2H-pyridazin-3-one] yielded an EC50 of 896 nM.
`C[C@@H]1C(c2ccc3nc(-c4ccccc4)oc3c2)=NNC(=O)[C@@H]1C` [Example 25, (4R,5S)-4,5-dimethyl-6-(2-phenyl-benzoxazol-6-yl)-4,5-dihydro-2H-pyridazin-3-one] was tested, and the EC50 was 2370 nM.
In the case of `CCC1CC(=O)NN=C1c1ccc2nc(-c3cccc(OC(C)CN4CCCCC4)c3)oc2c1` (stereo not drawn) [Example 230, 5-ethyl-6-{2-[3-(1-methyl-2-piperidin-1-yl-ethoxy)-phenyl]-benzoxazol-6-yl}-4,5-dihydro-2H-pyridazin-3-one], the EC50 is reported as 1190 nM.
`CCC1CC(=O)NN=C1c1ccc2nc(-c3ccc(OCC4CCCCN4C)cc3)oc2c1` (stereo not drawn) [Example 233, 5-ethyl-6-{2-[4-(1-methyl-2-piperidin-2-yl-methoxy)-phenyl]-benzoxazol-6-yl}-4,5-dihydro-2H-pyridazin-3-one] gave an EC50 of 848 nM.
